Measured values from US20100041679A1, “ORAL DIETING COMPOSITION COMPRISING CONJUGATED LINOLEIC ACID AND CAFFEINE” (Institut Phytoceutic, priority 2004, published 2010).

Assay: Additional study on 24 people with excess weight, formulations given orally, two sachets/day for one month, weight loss
Format: in vivo, human
Settings: oral route
Protocol: An additional study was carried out on 24 people with excess weight, to whom the formulations of the following table were administered by the oral route, in an amount of two sachets/day for one month, without changing their dietary habits.

Conjugated linoleic acid
weight loss observed, significance in words: not significant
Weight loss observed (as % by weight) (dietary habits unchanged): −1.8 (N.S.) % by weight
